Test results as given in publication PMC5663397, “A composite docking approach for the identification and characterization of ectosteric inhibitors of cathepsin K” (PLoS ONE, 2017).
“And” between values parts separate entries of the source, which are not always exact repeats. Equal values may be shown once. “Also recorded” adds a separate entry of the source. Read-outs that look alike come from different tables or passages of the source.

Experiments:
CatK [1] = target: T1, CatK (Homo sapiens, UniProt P43235); assay: Z-Phe-Arg-MCA cleavage assay with CatK; assay type: biochemical; conditions: 100 μM inhibitor, 5 nM CatK, 5 μM substrate, pH 5.5
T1 construct: made in house; host or cells: Pichia pastoris
T1 sequence (P43235 115-329): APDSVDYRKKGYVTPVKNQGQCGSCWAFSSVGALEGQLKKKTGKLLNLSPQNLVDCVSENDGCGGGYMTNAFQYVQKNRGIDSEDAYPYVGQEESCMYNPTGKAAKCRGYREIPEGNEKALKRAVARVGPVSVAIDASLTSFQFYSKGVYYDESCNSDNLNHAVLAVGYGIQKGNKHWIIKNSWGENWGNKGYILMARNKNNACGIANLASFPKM
Protocol: The enzymatic activity of CatK was monitored by measuring the rate of release of the fluorogenic group, amino-methyl coumarin at an excitation wavelength of 380 nm and an emission wavelength of 450 nm using a Molecular Devices SpectraMax Gemini spectrofluorometer. Inhibitors were added prior to measurement of enzyme activity. The assays were performed at 25°C at a fixed enzyme concentrations (5 nM) and substrate concentration (5 μM) in 100 mM sodium acetate buffer, pH 5.5, containing 2.5 mM DTT and 2.5 mM EDTA. Z-Phe-Arg-MCA hydrolysis with trypsin was carried out in 50 mM Tris-HCl, pH 8.8 at 10 nM enzyme concentration.

human osteoclasts [2] = assay: Human osteoclast bone resorption assay on bone slices; assay type: cell-based; conditions: 1 μM inhibitor, 72 h, versus untreated
Protocol: (§1) Osteoclasts were generated from mononuclear cells isolated from human bone marrow tissue (Lonza, Walkersville, MD). The bone marrow cells were centrifuged at 400 g for 5 min and the pellet was re-suspended in 10 mL α-MEM (α-Minimal Essential Media) and layered on 10 ml Ficoll-Plaque media solution. After centrifugation at 500 g for 30 min, the white interface containing the monocytes was harvested and washed twice with α-MEM. Cells were cultured in α-MEM containing 10% FBS and 25 ng/mL M-CSF for 24 hours and then cultured in 25 ng/mL RANKL and 25 ng/mL M-CSF for 7 days. Differentiated osteoclasts (100,000 cells per slice) were then seeded on each bone slice (5.5 mm diameter and 0.4 mm thickness; self-made) in the presence or absence of inhibitors and incubated for 72 hours at 5% CO2 and 37°C with the DMSO concentration at 0.1%. The inhibitor concentration range tested varied between 50 nM to 3 μM.
(§2) To compare the effects of the compounds on cell survival, the metabolic activity of osteoclasts was determined using the CellTiter-Blue Viability Assay (Promega, Madison, WI, USA). Bone slices from each condition (inhibitor-treated and control groups) were fixed in 4% formaldehyde and subsequently stained for tartrate-resistant acid phosphatase (TRAcP) activity (Acid Phosphatase, Leukocyte (TRAP) Kit; Sigma-Aldrich). Aliquots from cell culture media were used to determine the CTx-I concentration (MyBiosource ELISA kit, San Diego, CA). CTx-I is a CatK-specific C-terminal cleavage product of triple helical type I collagen. The total number of osteoclasts per bone slice was determined after TRAcP staining. Cells with ≥2 nuclei were counted as osteoclasts. After 72 h, bone slices from each condition were incubated in filtered water for cell lysis and cells were removed using a cotton stick. Subsequently the resorption cavities were stained with toluidine blue and observed by light microscopy. The number of resorption events and eroded bone surface area were determined as previously described. All light microscopic analyses were performed using a Nikon Eclipse LV100 microscope and a Nikon Eclipse Ci microscope.

CatK [3] = target: T1, CatK; assay: CatK collagenase assay (type I collagen degradation, SDS-PAGE); assay type: biochemical
Protocol: The collagenase inhibitory activities of all identified compounds were measured using a collagen degradation assay. Soluble bovine type I collagen (0.6 mg/mL) was incubated with 400 nM recombinant human CatK, in the presence or absence of 200 nM chondroitin 4-sulfate (C4-S) in 100 mM sodium acetate buffer, pH 5.5, containing 2.5 mM dithiothreitol (DTT) (Sigma-Aldrich Canada, Oakville, Ontario, Canada) and 2.5 mM ethylenediametetraacetate (EDTA) (Sigma-Aldrich). In the experiments involving detergent to minimize inhibitor aggregation, 0.001% or 0.005% Triton X-100 was added to the buffer with the inhibitor. The recombinant human CatK was expressed in Pichia pastoris and purified as previously described. Selected compounds identified by molecular docking were ordered from the National Cancer Institute through the Developmental Therapeutics Program (Rockville, MD). All compounds were dissolved in DMSO as a 20 or […] stock. […] After incubation at 28°C for 4 hours, 1 μM of E-64 was added to block the residual activity of CatK.
(§3) Digestion with MMP-1 was performed in 50 mM Tris-HCl, pH 7.4, containing 200 mM NaCl and 5 mM CaCl2 at 28°C for 4 h. Reactions were stopped by adding 25 mM EDTA as previously described. Samples were analyzed using 10% SDS-PAGE gels and stained with Coomassie. The resulting bands of α-collagen chains were quantitatively assessed using ImageJ (Version 1.5) and IC50 graphs were plotted using GraphPad Prism (GraphPad Software, Version 5.0, La Jolla California USA).

quinone oxidoreductase = test system: quinone oxidoreductase; set-up: method as in PMID 21859103; conditions: cited from earlier work
MMP-1 [4] = target: T2, MMP-1 (Homo sapiens, UniProt P03956); assay: Gelatin degradation assay with MMP-1; assay type: biochemical; conditions: 50 μM inhibitor, 10 nM MMP-1
T2 sequence (P03956 100-469): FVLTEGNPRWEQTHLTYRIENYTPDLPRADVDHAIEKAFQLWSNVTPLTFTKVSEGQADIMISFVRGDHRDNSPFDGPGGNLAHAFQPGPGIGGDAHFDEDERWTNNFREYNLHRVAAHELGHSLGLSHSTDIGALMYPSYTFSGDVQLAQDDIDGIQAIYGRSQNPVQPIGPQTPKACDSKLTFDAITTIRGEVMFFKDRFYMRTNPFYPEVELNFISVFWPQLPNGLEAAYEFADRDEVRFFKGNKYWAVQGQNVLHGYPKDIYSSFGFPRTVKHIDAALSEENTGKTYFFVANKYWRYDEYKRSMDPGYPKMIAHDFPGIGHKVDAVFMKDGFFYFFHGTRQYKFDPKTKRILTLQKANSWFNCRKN
Protocol: Gelatin (0.6 mg/mL) degradation assays were performed in the same manner as the collagen degradation experiments with 10 nM enzyme and were incubated at 37°C for one hour at the appropriate pH values for the individual proteases (CatK, pH 5.5; MMP-1, pH 7.4; trypsin, pH 8.8).

MMP-1 [5] = target: T2, MMP-1; assay: Collagen digestion with MMP-1; assay type: biochemical; conditions: 50 μM inhibitor, 400 nM MMP-1
Protocol: as §3

human osteoclasts [6] = assay: Osteoclast survival: CellTiter-Blue metabolic activity and osteoclast count after TRAcP staining; assay type: cell-based; conditions: compared with untreated cells
Protocol: as §1, §2

inhibition at 100 µM (CatK [1]): 5 ± 2.7% | IC50 (CatK [3]; 400 nM CatK, soluble bovine type I collagen 0.6 mg/mL, pH 5.5, 28°C, 4 h, read-out: Collagenase IC50): < 20 µM and 4.9 µM and ~5 µM | IC50 (CatK [3]; Collagenase IC50 with 0.005% Triton X-100, in the presence of detergent, 0.005% Triton X-100): 5.2 ± 1.5 µM | Collagenase IC50 with 0.005% Triton X-100 (CatK [3]; in the presence of detergent, 0.005% Triton X-100): not significantly different
Compound: CN(C)CCCNc1ccc2ncn3c4ccccc4c(=O)c1c23 [compound 3, 5-(3-(dimethylamino)propylamino)-6H-imidazo[4,5,1-de]acridin-6-one]
Number of trenches (human osteoclasts [2]): significant reduction; also recorded: significantly reduced | percentage of eroded surface area / total eroded surface (human osteoclasts [2]): significant reduction; also recorded: significantly reduced | activity in an inhibitor screen of a quinone oxidoreductase (quinone oxidoreductase): active | inhibitory activity for the gelatinase activity of MMP-1 (MMP-1 [4]): no inhibitory activity; also recorded: did not show inhibition | inhibitory activity towards the collagenase activity of MMP-1 (MMP-1 [5]): no inhibitory activity; also recorded: did not show inhibition | Metabolic activity of osteoclasts (human osteoclasts [6]; CellTiter-Blue): no significant differences | number of osteoclasts (human osteoclasts [6]; TRAcP staining): no significant differences
